Test results as given in ChEMBL document CHEMBL3525929, “Paraoxonase 1 as a major bioactivating hydrolase for olmesartan medoxomil in human blood circulation: molecular identification and contribution to plasma metabolism” (Drug Metab Dispos, 2012).

Experiments:
[1] = tested on: CCCc1nc(C(C)(C)O)c(C(=O)OCc2oc(=O)oc2C)n1Cc1ccc(-c2ccccc2-c2nnn[nH]2)cc1; test: Prodrug conversion in human serum albumin assessed as hydrolysis by single-enzyme Michaelis-Menten model; type: ADME
[2] = Prodrug conversion in recombinant human PON1 192RR mutant expressed in FreeStyle 293-F cells assessed as hydrolysis by single-enzyme Michaelis-Menten model; type: ADME, cell-based
[3] = Prodrug conversion in recombinant human PON1 192RR mutant expressed in FreeStyle 293-F cells measured per mg of protein by single-enzyme Michaelis-Menten model; type: ADME, cell-based
[4] = Ratio of Vmax to Km in recombinant human PON1 192RR mutant expressed in FreeStyle 293-F cells assessed as hydrolysis measured per mg of protein by single-enzyme Michaelis-Menten model; type: ADME, cell-based
Albumin [5] = molecular target: T1, Albumin (Homo sapiens, UniProt P02768); test: Ratio of Vmax to Km in human serum albumin assessed as hydrolysis measured per mg of protein by single-enzyme Michaelis-Menten model; type: ADME
Plasma [6] = test: Prodrug conversion in human plasma assessed as hydrolysis in presence of 4 fold anti-PON1 IgG/plasma ratio; type: ADME
[7] = Prodrug conversion in human serum VLDL and chylomicron assessed as conversion velocity at 10 uM measured per mg of protein in presence of Tris-HCl/Ca2+; type: ADME, cell-free
[8] = Prodrug conversion in human serum LDL assessed as conversion velocity at 10 uM measured per mg of protein in presence of Tris-HCl/Ca2+; type: ADME, cell-free
[9] = Prodrug conversion in human serum HDL assessed as conversion velocity per mg of protein at 10 uM in presence of Tris-HCl/Ca2+; type: ADME, cell-free
[10] = Prodrug conversion in human serum LPDS assessed as conversion velocity per mg of protein at 10 uM in presence of Tris-HCl/Ca2+; type: ADME, cell-free
[11] = Prodrug conversion in human serum LPDS assessed as conversion velocity per mg of protein at 10 uM in presence of KPB; type: ADME, cell-free
[12] = Prodrug conversion in human serum VLDL and chylomicron assessed as distribution of hydrolyzing activity measured per ml of serum at 10 uM in presence of Tris-HCl/Ca2+; type: ADME, cell-free
[13] = Prodrug conversion in human serum LDL assessed as distribution of hydrolyzing activity measured per ml of serum at 10 uM in presence of Tris-HCl/Ca2+; type: ADME, cell-free
[14] = Prodrug conversion in human serum HDL assessed as distribution of hydrolyzing activity measured per ml of serum at 10 uM in presence of Tris-HCl/Ca2+; type: ADME, cell-free
[15] = Prodrug conversion in human serum LPDS assessed as distribution of hydrolyzing activity measured per ml of serum at 10 uM in presence of Tris-HCl/Ca2+; type: ADME, cell-free
[16] = Prodrug conversion in human serum LPDS assessed as distribution of hydrolyzing activity measured per ml of serum at 10 uM in presence of KPB; type: ADME, cell-free
Plasma [17] = test: Prodrug conversion in human plasma assessed as hydrolysis measured per mg of protein at 10 uM in presence of Ca2+; type: ADME, cell-free
Plasma [18] = test: Prodrug conversion in human plasma assessed as hydrolysis measured per mg of protein at 10 uM in presence of Mg2+; type: ADME, cell-free
Plasma [19] = test: Prodrug conversion in human plasma assessed as hydrolysis measured per mg of protein at 10 uM in presence of Zn2+; type: ADME, cell-free
[20] = Prodrug conversion in recombinant human PON1 192QQ mutant expressed in FreeStyle 293-F cells assessed as hydrolysis measured per mg of protein at 10 uM in presence of Ca2+; type: ADME, cell-based
[21] = Prodrug conversion in recombinant human PON1 192QQ mutant expressed in FreeStyle 293-F cells assessed as hydrolysis measured per mg of protein at 10 uM in presence of Mg2+; type: ADME, cell-based
[22] = Prodrug conversion in recombinant human PON1 192QQ mutant expressed in FreeStyle 293-F cells assessed as hydrolysis measured per mg of protein at 10 uM in presence of Zn2+; type: ADME, cell-based
[23] = Prodrug conversion in recombinant human PON1 192RR mutant expressed in FreeStyle 293-F cells assessed as hydrolysis measured per mg of protein at 10 uM in presence of Ca2+; type: ADME, cell-based
[24] = Prodrug conversion in recombinant human PON1 192RR mutant expressed in FreeStyle 293-F cells assessed as hydrolysis measured per mg of protein at 10 uM in presence of Mg2+; type: ADME, cell-based
[25] = Prodrug conversion in recombinant human PON1 192RR mutant expressed in FreeStyle 293-F cells assessed as hydrolysis measured per mg of protein at 10 uM in presence of Zn2+; type: ADME, cell-based
Albumin [26] = molecular target: T1, Albumin; test: Prodrug conversion in human serum albumin assessed as hydrolysis measured per mg of protein at 10 uM in presence of Ca2+; type: ADME
Albumin [27] = molecular target: T1, Albumin; test: Prodrug conversion in human serum albumin assessed as hydrolysis measured per mg of protein at 10 uM in presence of Mg2+; type: ADME
Albumin [28] = molecular target: T1, Albumin; test: Prodrug conversion in human serum albumin assessed as hydrolysis measured per mg of protein at 10 uM in presence of Zn2+; type: ADME
Plasma [29] = test: Prodrug conversion in human plasma assessed as hydrolysis by single-enzyme Michaelis-Menten model; type: ADME, cell-free
Plasma [30] = test: Prodrug conversion in human plasma assessed as hydrolysis measured per mg of protein by single-enzyme Michaelis-Menten model; type: ADME, cell-free
Plasma [31] = test: Ratio of Vmax to Km in human plasma assessed as hydrolysis measured per mg of protein by single-enzyme Michaelis-Menten model; type: ADME
[32] = Prodrug conversion in recombinant human PON1 192QQ mutant expressed in FreeStyle 293-F cells assessed as hydrolysis by single-enzyme Michaelis-Menten model; type: ADME, cell-based
[33] = Prodrug conversion in recombinant human PON1 192QQ mutant expressed in FreeStyle 293-F cells measured per mg of protein by single-enzyme Michaelis-Menten model; type: ADME, cell-based
[34] = Ratio of Vmax to Km in recombinant human PON1 192QQ mutant expressed in FreeStyle 293-F cells assessed as hydrolysis measured per mg of protein by single-enzyme Michaelis-Menten model; type: ADME, cell-based

T1 sequence (P02768 whole entry): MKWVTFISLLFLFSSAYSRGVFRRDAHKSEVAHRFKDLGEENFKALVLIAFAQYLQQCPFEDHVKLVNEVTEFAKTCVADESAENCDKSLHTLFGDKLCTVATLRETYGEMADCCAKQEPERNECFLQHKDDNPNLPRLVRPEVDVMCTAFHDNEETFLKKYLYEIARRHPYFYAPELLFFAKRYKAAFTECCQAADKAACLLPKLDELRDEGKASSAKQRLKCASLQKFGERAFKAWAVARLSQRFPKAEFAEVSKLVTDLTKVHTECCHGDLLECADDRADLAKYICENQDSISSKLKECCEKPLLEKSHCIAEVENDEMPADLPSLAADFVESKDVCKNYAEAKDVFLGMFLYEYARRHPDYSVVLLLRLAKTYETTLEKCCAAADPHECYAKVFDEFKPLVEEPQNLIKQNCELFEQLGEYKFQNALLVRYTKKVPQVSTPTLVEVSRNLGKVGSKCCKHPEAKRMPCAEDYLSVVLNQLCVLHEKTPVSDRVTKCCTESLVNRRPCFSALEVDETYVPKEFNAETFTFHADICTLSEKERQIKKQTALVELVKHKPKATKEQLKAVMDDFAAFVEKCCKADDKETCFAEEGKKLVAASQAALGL

## Albumin (Homo sapiens)
[1]
  Km: 354 µM
  Vmax: 0.00261 µmol/min

## CCCc1nc(C(C)(C)O)c(C(=O)OCc2oc(=O)oc2C)n1Cc1ccc(-c2ccccc2-c2nnn[nH]2)cc1 [OLMESARTAN MEDOXOMIL]
[2]
  Km: 102 µM
[3]
  Vmax: 140 nmol/min
[4]
  Vmax/Km: 1.37 mL/min
Albumin [5]
  Vmax/Km: 0.00737 mL/min
Plasma [6]
  Drug metabolism: metabolite_not_detected
[7]
  Activity: 13.9 nmol/min
[8]
  Activity: 12.6 nmol/min
[9]
  Activity: 277 nmol/min
[10]
  Activity: 0.516 nmol/min
[11]
  Activity: 0.131 nmol/min
[12]
  Activity: 2.42 nmol/min
[13]
  Activity: 4.07 nmol/min
[14]
  Activity: 596 nmol/min
[15]
  Activity: 35.6 nmol/min
[16]
  Activity: 9.04 nmol/min
Plasma [17]
  Activity: 7.91 nmol/min
Plasma [18]
  Activity: 0.266 nmol/min
Plasma [19]
  Activity: 0.0918 nmol/min
[20]
  Activity: 9.5 nmol/min
[21]
  Activity: 0.65 nmol/min
[22]
  Activity: 0.75 nmol/min
[23]
  Activity: 20.6 nmol/min
[24]
  Activity: 2.25 nmol/min
[25]
  Activity: 1.75 nmol/min
Albumin [26]
  Activity: 0.0102 nmol/min
Albumin [27]
  Activity: 0.0106 nmol/min
Albumin [28]
  Activity: 0.0164 nmol/min
Plasma [29]
  Km: 6.71 µM
Plasma [30]
  Vmax: 18.6 nmol/min
Plasma [31]
  Vmax/Km: 2.77 mL/min
[32]
  Km: 157 µM
[33]
  Vmax: 124 nmol/min
[34]
  Vmax/Km: 0.79 mL/min
